# Laboratory results reported in patent US20240148821A1, “PHARMACEUTICAL USE OF CYCLIC PEPTIDE COMPOUND” (CHUGAI SEIYAKU KABUSHIKI KAISHA, priority 2021, published 2024).
# Numbered stars: 1 amine (or outer) side, 2 acyl side, 3 side chain; on linkers, the order of the positions; unused ones are H or OH. Bridge positions count the residues as written; N and C are the ends. Square brackets hold non-standard residues; d marks the D form. Peptide text beside a SMILES is read from it. * marks the point of attachment. hPhe(3-Cl-4-CF3) = N[C@@H](CCc1ccc(C(F)(F)F)c(Cl)c1)C(=O)O; NMePhe(4-CF3) = CN[C@@H](Cc1ccc(C(F)(F)F)cc1)C(=O)O; NMePhe(4-Me) = CN[C@@H](Cc1ccc(C)cc1)C(=O)O; NMedβ3hAla = C[C@H](CC(=O)[*:2])N(C)[*:1]; NMeGly(cPent) = CN[C@H](C(=O)O)C1CCCC1; NMe3Pal = CN[C@@H](Cc1cccnc1)C(=O)O; NMeCha = CN[C@@H](CC1CCCCC1)C(=O)O; Hyp = O=C(O)[C@@H]1C[C@@H](O)CN1; NMeAhp(2) = CCCCC[C@H](NC)C(=O)O; NMeChg = CN[C@H](C(=O)O)C1CCCCC1; NMeF = CN[C@@H](Cc1ccccc1)C(=O)O; NMeI = CC[C@H](C)[C@H](NC)C(=O)O; NMeD = CN[C@@H](CC(=O)O)C(=O)O; dNMeD = CN[C@H](CC(=O)O)C(=O)O; NMeL = CN[C@@H](CC(C)C)C(=O)O; NMeNle = CCCC[C@H](NC)C(=O)O; NMeV = CN[C@H](C(=O)O)C(C)C; d(β3hA) = C[C@@H](N)CC(=O)O; NMeS = CN[C@@H](CO)C(=O)O; Morpholide = C1CN(*)CCO1; NMeA = CN[C@@H](C)C(=O)O; Piperidide = C1CCN(*)CC1; Pyrrolidide = C1CCN(*)C1; dNMeA = CN[C@H](C)C(=O)O; Ac5c = NC1(C(=O)O)CCCC1; Aze = O=C(O)[C@@H]1CCN1; Cyclopropyl = C1CC1*; Sar = CNCC(=O)O; Propyl = CCC*
# Biological target: protein-protein interaction between Kras and SOS1 (biotin-tagged human Kras loaded with GDP, His-tagged human SOS1) (Homo sapiens (Human), UniProt P01116, G12D)
# Assay: Protein-protein interaction inhibition between Kras and SOS1 (KrasG12D-SOS PPI) using AlphaScreen;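 further: kras produced in E. coli, Ni-coupled donor beads and streptavidin acceptor beads, excitation 680 nm with emission detected at 520–620 nm via singlet oxygen transfer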
# Format: biochemical
# Conditions: AlphaScreen; biotin-tagged human Kras loaded with GDP, His-tagged human SOS1; read-out: KRAS G12D-SOS PPI IC50
row,SMILES,IC50
1,CC[C@H](C)[C@@H]1NC(=O)[C@H](CC(C)C)N(C)C(=O)C[C@@H](C(=O)N2CCCC2)N(C)C(=O)[C@H](C2CCCCC2)N(C)C(=O)C2(CCCC2)NC(=O)[C@H](Cc2cccnc2)N(C)C(=O)[C@H](CCc2ccc(C(F)(F)F)c(Cl)c2)NC(=O)CN(C)C(=O)[C@H](CC2CCCCC2)N(C)C(=O)CN(C)C(=O)CN(C)C1=O [Compound 1693] ([NMeL]I[Sar][Sar][NMeCha][Sar][hPhe(3-Cl-4-CF3)][NMe3Pal][Ac5c][NMeChg][NMeD]-Pyrrolidide; lactam N-11),1.7 nM
2,CCCCC[C@H]1C(=O)N[C@@H]([C@@H](C)CC)C(=O)N(C)[C@@H](C)C(=O)N2CC[C@H]2C(=O)N(C)[C@@H](CC2CCCCC2)C(=O)N(C)CC(=O)N[C@@H](CCc2ccc(C(F)(F)F)c(Cl)c2)C(=O)N2CCC[C@H]2C(=O)NC2(CCCC2)C(=O)N(C)[C@@H](C(C)C)C(=O)N(C)[C@H](C(=O)N2CCCCC2)CC(=O)N1C [Compound 1705] ([NMeAhp(2)]I[NMeA][Aze][NMeCha][Sar][hPhe(3-Cl-4-CF3)]P[Ac5c][NMeV][NMeD]-Piperidide; lactam N-11),9.8 nM
3,CCCC[C@H]1C(=O)N(C)CC(=O)N[C@@H](CCc2ccc(C(F)(F)F)c(Cl)c2)C(=O)N2CCC[C@H]2C(=O)NC2(CCCC2)C(=O)N(C)[C@@H](C(C)C)C(=O)N(C)[C@H](C(=O)N2CCCCC2)CC(=O)N(C)[C@@H](CC(C)C)C(=O)N[C@@H]([C@@H](C)CC)C(=O)N(C)[C@@H](C)C(=O)N2CC[C@H]2C(=O)N1C [Compound 1712] ([NMeL]I[NMeA][Aze][NMeNle][Sar][hPhe(3-Cl-4-CF3)]P[Ac5c][NMeV][NMeD]-Piperidide; lactam N-11),9.8 nM
4,CC[C@H](C)[C@@H]1NC(=O)[C@H](CC(C)C)N(C)C(=O)C[C@@H](C)N(C)C(=O)[C@H](C2CCCC2)N(C)C(=O)C2(CCCC2)NC(=O)[C@@H]2CCCN2C(=O)[C@H](CCc2ccc(C(F)(F)F)c(Cl)c2)NC(=O)CN(C)C(=O)[C@H](CC2CCCCC2)N(C)C(=O)[C@@H]2CCN2C(=O)[C@H](C)N(C)C1=O [Compound 1717] (cyclo([Ac5c][NMeGly(cPent)][NMedβ3hAla][NMeL]I[NMeA][Aze][NMeCha][Sar][hPhe(3-Cl-4-CF3)]P)),3.3 nM
5,CC[C@H](C)[C@@H]1NC(=O)[C@H](CC(C)C)N(C)C(=O)C[C@@H](C(=O)N2CCCCC2)N(C)C(=O)[C@H]([C@@H](C)CC)N(C)C(=O)C2(CCCC2)NC(=O)[C@@H]2CCCN2C(=O)[C@H](CCc2ccc(C(F)(F)F)c(Cl)c2)NC(=O)CN(C)C(=O)[C@H](CC2CCCCC2)N(C)C(=O)[C@@H]2CCN2C(=O)[C@H](C)N(C)C1=O [Compound 1722] ([NMeL]I[NMeA][Aze][NMeCha][Sar][hPhe(3-Cl-4-CF3)]P[Ac5c][NMeI][NMeD]-Piperidide; lactam N-11),2.8 nM
6,CC[C@H](C)[C@@H]1NC(=O)[C@H](CC(C)C)N(C)C(=O)C[C@@H](C(=O)N2CCCCC2)N(C)C(=O)[C@H]([C@@H](C)CC)N(C)C(=O)C2(CCCC2)NC(=O)[C@@H]2CCCN2C(=O)[C@H](CCc2ccc(C(F)(F)F)c(Cl)c2)NC(=O)CN(C)C(=O)[C@H](Cc2ccc(C)cc2)N(C)C(=O)[C@@H]2CCN2C(=O)[C@H](C)N(C)C1=O [Compound 1727] ([NMeL]I[NMeA][Aze][NMePhe(4-Me)][Sar][hPhe(3-Cl-4-CF3)]P[Ac5c][NMeI][NMeD]-Piperidide; lactam N-11),1.2 nM
7,CC[C@H](C)[C@@H]1NC(=O)[C@H](CC(C)C)N(C)C(=O)C[C@@H](C(=O)N2CCCCC2)N(C)C(=O)[C@H](C(C)C)N(C)C(=O)C2(CCCC2)NC(=O)[C@@H]2CCCN2C(=O)[C@H](CCc2ccc(C(F)(F)F)c(Cl)c2)NC(=O)CN(C)C(=O)[C@H](C(C)C)N(C)C(=O)[C@@H]2CCN2C(=O)[C@H](C)N(C)C1=O [Compound 1737] ([NMeL]I[NMeA][Aze][NMeV][Sar][hPhe(3-Cl-4-CF3)]P[Ac5c][NMeV][NMeD]-Piperidide; lactam N-11),8.3 nM
8,CCO[C@@H]1C[C@H]2C(=O)NC3(CCCC3)C(=O)N(C)[C@@H](CC(C)C)C(=O)N(C)[C@H](C(=O)N3CCCC3)CC(=O)N(C)[C@@H](CC(C)C)C(=O)N[C@@H]([C@@H](C)CC)C(=O)N(C)CC(=O)N(C)CC(=O)N(C)[C@@H](CC3CCCCC3)C(=O)N(C)CC(=O)N[C@@H](CCc3ccc(C(F)(F)F)c(Cl)c3)C(=O)N2C1 [Compound 1748] ([NMeL]I[Sar][Sar][NMeCha][Sar][hPhe(3-Cl-4-CF3)][Hyp](Et)[Ac5c][NMeL][NMeD]-Pyrrolidide; lactam N-11),0.61 nM
9,CC[C@H](C)[C@@H]1NC(=O)[C@H](CC(C)C)N(C)C(=O)C[C@@H](C(=O)N2CCOCC2)N(C)C(=O)[C@H](C(C)C)N(C)C(=O)C2(CCCC2)NC(=O)[C@@H]2CCCN2C(=O)[C@H](CCc2ccc(C(F)(F)F)c(Cl)c2)NC(=O)CN(C)C(=O)[C@H](CC2CCCCC2)N(C)C(=O)[C@@H]2CCN2C(=O)CN(C)C1=O [Compound 1758] ([NMeL]I[Sar][Aze][NMeCha][Sar][hPhe(3-Cl-4-CF3)]P[Ac5c][NMeV][NMeD]-Morpholide; lactam N-11),1.2 nM
10,CCCOC[C@H]1C(=O)N[C@@H]([C@@H](C)CC)C(=O)N(C)[C@@H](C)C(=O)N2CC[C@H]2C(=O)N(C)[C@@H](CC2CCCCC2)C(=O)N(C)CC(=O)N[C@@H](CCc2ccc(C(F)(F)F)c(Cl)c2)C(=O)N2CCC[C@H]2C(=O)NC2(CCCC2)C(=O)N(C)[C@@H](C(C)C)C(=O)N(C)[C@H](C(=O)N2CCCCC2)CC(=O)N1C [Compound 1763] ([NMeS](Propyl)I[NMeA][Aze][NMeCha][Sar][hPhe(3-Cl-4-CF3)]P[Ac5c][NMeV][NMeD]-Piperidide; lactam N-11),4.5 nM
11,CC[C@H](C)[C@@H]1NC(=O)[C@H](COC2CC2)N(C)C(=O)C[C@@H](C(=O)N2CCCCC2)N(C)C(=O)[C@H](C(C)C)N(C)C(=O)C2(CCCC2)NC(=O)[C@@H]2CCCN2C(=O)[C@H](CCc2ccc(C(F)(F)F)c(Cl)c2)NC(=O)CN(C)C(=O)[C@H](CC2CCCCC2)N(C)C(=O)[C@@H]2CCN2C(=O)[C@H](C)N(C)C1=O [Compound 1764] ([NMeS](Cyclopropyl)I[NMeA][Aze][NMeCha][Sar][hPhe(3-Cl-4-CF3)]P[Ac5c][NMeV][NMeD]-Piperidide; lactam N-11),3.2 nM
12,CC[C@H](C)[C@@H]1NC(=O)[C@H](CC(C)C)N(C)C(=O)C[C@H](C(=O)N2CCCC2)N(C)C(=O)[C@H](C2CCCC2)N(C)C(=O)C2(CCCC2)NC(=O)[C@@H]2CCCN2C(=O)[C@H](CCc2ccc(C(F)(F)F)c(Cl)c2)NC(=O)CN(C)C(=O)[C@H](Cc2ccc(C(F)(F)F)cc2)N(C)C(=O)[C@@H]2CCN2C(=O)[C@H](C)N(C)C1=O [Compound 1765] ([NMeL]I[NMeA][Aze][NMePhe(4-CF3)][Sar][hPhe(3-Cl-4-CF3)]P[Ac5c][NMeGly(cPent)][dNMeD]-Pyrrolidide; lactam N-11),74 nM
13,CC[C@H](C)[C@@H]1NC(=O)[C@H](C(C)C)N(C)C(=O)C[C@@H](C(=O)N2CCCCC2)N(C)C(=O)[C@H](C(C)C)N(C)C(=O)C2(CCCC2)NC(=O)[C@@H]2CCCN2C(=O)[C@H](CCc2ccc(C(F)(F)F)c(Cl)c2)NC(=O)CN(C)C(=O)[C@H](CC2CCCCC2)N(C)C(=O)[C@@H]2CCN2C(=O)[C@H](C)N(C)C1=O [Compound 1767] ([NMeV]I[NMeA][Aze][NMeCha][Sar][hPhe(3-Cl-4-CF3)]P[Ac5c][NMeV][NMeD]-Piperidide; lactam N-11),7.2 nM
14,CC[C@H](C)[C@@H]1NC(=O)[C@H](C)N(C)C(=O)C[C@@H](C)N(C)C(=O)[C@H](C(C)C)N(C)C(=O)C2(CCCC2)NC(=O)[C@@H]2CCCN2C(=O)[C@H](CCc2ccc(C(F)(F)F)c(Cl)c2)NC(=O)[C@@H](C)N(C)C(=O)[C@H](CC2CCCCC2)N(C)C(=O)[C@@H]2CCN2C(=O)[C@H](C)N(C)C1=O [Compound 1773] (cyclo([Ac5c][NMeV][NMedβ3hAla][NMeA]I[NMeA][Aze][NMeCha][dNMeA][hPhe(3-Cl-4-CF3)]P)),51 nM
15,CC[C@H](C)[C@@H]1NC(=O)[C@H](C)N(C)C(=O)C[C@@H](C)NC(=O)[C@H](C(C)C)N(C)C(=O)C2(CCCC2)NC(=O)[C@@H]2CCCN2C(=O)[C@H](CCc2ccc(C(F)(F)F)c(Cl)c2)NC(=O)[C@@H](C)N(C)C(=O)[C@H](Cc2ccccc2)N(C)C(=O)[C@@H]2CCCN2C(=O)CN(C)C1=O [Compound 1783] (cyclo([Ac5c][NMeV][d(β3hA)][NMeA]I[Sar]P[NMeF][dNMeA][hPhe(3-Cl-4-CF3)]P)),52 nM
16,CCO[C@@H]1C[C@H]2C(=O)NC3(CCCC3)C(=O)N(C)[C@@H](CC(C)C)C(=O)N(C)[C@H](C(=O)N3CCOCC3)CC(=O)N(C)[C@@H](CC(C)C)C(=O)N[C@@H]([C@@H](C)CC)C(=O)N(C)CC(=O)N(C)CC(=O)N(C)[C@@H](CC3CCCCC3)C(=O)N(C)CC(=O)N[C@@H](CCc3ccc(C(F)(F)F)c(Cl)c3)C(=O)N2C1 [Compound 1785] ([NMeL]I[Sar][Sar][NMeCha][Sar][hPhe(3-Cl-4-CF3)][Hyp](Et)[Ac5c][NMeL][NMeD]-Morpholide; lactam N-11),0.45 nM
17,CC(C)C[C@H]1C(=O)N[C@@H](C(C)C)C(=O)N(C)[C@@H](C)C(=O)N2CC[C@H]2C(=O)N(C)[C@@H](CC2CCCCC2)C(=O)N(C)CC(=O)N[C@@H](CCc2ccc(C(F)(F)F)c(Cl)c2)C(=O)N2CCC[C@H]2C(=O)NC2(CCCC2)C(=O)N(C)[C@@H](C(C)C)C(=O)N(C)[C@H](C(=O)N2CCCCC2)CC(=O)N1C [Compound 1791] ([NMeL]V[NMeA][Aze][NMeCha][Sar][hPhe(3-Cl-4-CF3)]P[Ac5c][NMeV][NMeD]-Piperidide; lactam N-11),3 nM
18,CC[C@H](C)[C@@H]1NC(=O)[C@H](CC(C)C)N(C)C(=O)C[C@@H](C(=O)N2CCCCC2)N(C)C(=O)[C@H](C2CCCCC2)N(C)C(=O)C2(CCCC2)NC(=O)[C@@H]2CCCN2C(=O)[C@H](CCc2ccc(C(F)(F)F)c(Cl)c2)NC(=O)CN(C)C(=O)[C@H](Cc2ccc(C)cc2)N(C)C(=O)[C@@H]2CCN2C(=O)[C@H](C)N(C)C1=O [Compound 1795] ([NMeL]I[NMeA][Aze][NMePhe(4-Me)][Sar][hPhe(3-Cl-4-CF3)]P[Ac5c][NMeChg][NMeD]-Piperidide; lactam N-11),0.99 nM
